Results on one substance are retold here after patent US12558400B2, “Method of treatment of soft tissue sarcoma with a peptide comrpising a PCNA interacting motif” (THERAPIM PTY LTD, priority 2020, dated 2026).

A short description of data set [1]: Solubility of the peptide drug substance. In kind it is physicochemical. To be noted: water and aqueous media; hydrochloride salt. From the text: The product was available as a hydrochloride salt (chloride counter-ion is ionically bound to the basic side chains of the peptide; 18 mol/mol peptide, theoretically; Molecular formula: C158H285N71O29S, 18 HCl; Relative molecular mass: […]. Free base: 3673.3).

Data set [2] concerns patients with advanced solid tumors. Briefly: Phase I safety and tolerability study of ATX-101 (studies ATX101-01 and -02). In kind it is in vivo. As to the method:
A Phase I, open-label, single arm, safety and tolerability study was conducted (study ATX101-01) which evaluated escalating dose cohorts of ATX-101 (SEQ ID NO: 914) in patients with advanced solid tumors. The study was designed to systematically assess safety and tolerability, and to identify the Maximum Tolerated Dose (MTD) and recommended Phase II dose for ATX-101. Pharmacokinetics and preliminary efficacy (anti-tumor activity) were also assessed.
If at the end of the 6-week Phase I study (study ATX101-01) the patient's tumor didn't show signs of progression, treatment could be continued in a long-term follow-up study (study ATX101-02) until disease progression or other reasons for treatment discontinuation, e.g. withdrawal of consent.
Four dose levels (20, 35, 45 and 60 mg/m^2 of body surface area calculated based on the height and weight of patients) of intravenous ATX-101 (net peptide, excluding the mass of the salt component) were tested in the Phase I study (study ATX101-01). ATX-101 was administered via IV infusion over at least 1 hour either using a constant infusion rate or an adaptable infusion rate scheme starting with 5 mg/hr and increasing the infusion flow rate every 30 minutes, as outlined in the infusion rate table below (Table 1). […] Doses of 45 and 60 mg/m^2 were administered in 500 mL.
Treatment was administered weekly in cycles of 21-day duration, with a single IV infusion of ATX-101 on Day 1, 8 and 15 of each cycle. Dosing of patients occurred weekly for up to two cycles (i.e. 2×21 days=6 weeks).
Following the initial 6 weeks of treatment in the Phase I study (study ATX101-01), patients could continue the treatment in the long-term follow-up study (study ATX101-02). These patients, that received the same dose regimen as in study −01, were treated for up to 15.6 months.
Safety: Incidence, severity, and duration of treatment-emergent adverse events (TEAEs) and treatment related TEAEs were assessed according to Common Terminology Criteria for Adverse Events (CTCAE) v4.03.

Where no end group is shown, it is not given here.

Consider “Ac-MDRWLVKWKKKRKIRRRRRRRRRRR (N-terminus assumed) [ATX-101]”, for which the solubility entry in data set [1] is reported as “freely soluble”. In data set [2] (22 patients, weekly IV infusion, all dose levels (20-60 mg/m^2)), the treatment related deaths entry was “No treatment related deaths”. Besides, in data set [2] (in vivo), the “course of infusion-related reactions after repeated doses” value is reported as “did not worsen”. In addition, in data set [2] (in vivo, iv), the “Dose Limiting Toxicities (DLTs)” value was “no Dose Limiting Toxicities”; the “infusion-related reactions (IRR) Grade 1 or 2, proportion of patients” value was found to be 73%; the “treatment discontinuation due to treatment related toxicity” value is reported as “no treatment discontinuation due to treatment related toxicity”; the “treatment related serious adverse event or severe adverse event” value is recorded as “no treatment related serious adverse event or severe adverse event”.
